Read-outs that look alike come from different tables or passages of the source.
Key:
5-HT2A = 5-HT2A (Homo sapiens, UniProt P28223); assay: In vitro profiling, binding assay
Protocol: (§1) Binding and functional assays of CGAs with the proteins known to be pharmacological targets related to the CVS, CNS, and GI functions were conducted. […] In the binding assay, we measured the radiation activity of the solution containing filtered proteins that bound to the tested compound or high-affinity ligand, while in the functional assays, we measured the reaction product. The ability of the test compound to interact with the tested targets was measured as the inhibition of ligand binding to the target or reaction product production (% inhibition).

5-HT1B = 5-HT1B (Homo sapiens, UniProt P28222); assay: In vitro profiling, binding assay
5-HT1B, sequence (P28222 whole entry): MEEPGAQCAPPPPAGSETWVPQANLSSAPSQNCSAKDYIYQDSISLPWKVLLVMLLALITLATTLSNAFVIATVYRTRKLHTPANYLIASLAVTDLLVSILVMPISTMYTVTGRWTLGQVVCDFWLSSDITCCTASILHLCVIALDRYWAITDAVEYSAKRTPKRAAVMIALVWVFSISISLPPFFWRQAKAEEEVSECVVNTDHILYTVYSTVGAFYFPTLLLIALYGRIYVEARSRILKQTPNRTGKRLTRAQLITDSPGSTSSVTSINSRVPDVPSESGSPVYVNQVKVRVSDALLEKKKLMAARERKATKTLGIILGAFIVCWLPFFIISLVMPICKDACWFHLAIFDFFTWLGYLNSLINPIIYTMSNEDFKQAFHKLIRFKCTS
Protocol: as §1

Adrenergic β1 = Adrenergic β1 (Homo sapiens, UniProt P08588); assay: In vitro profiling, binding assay
Adrenergic β1, sequence (P08588 whole entry): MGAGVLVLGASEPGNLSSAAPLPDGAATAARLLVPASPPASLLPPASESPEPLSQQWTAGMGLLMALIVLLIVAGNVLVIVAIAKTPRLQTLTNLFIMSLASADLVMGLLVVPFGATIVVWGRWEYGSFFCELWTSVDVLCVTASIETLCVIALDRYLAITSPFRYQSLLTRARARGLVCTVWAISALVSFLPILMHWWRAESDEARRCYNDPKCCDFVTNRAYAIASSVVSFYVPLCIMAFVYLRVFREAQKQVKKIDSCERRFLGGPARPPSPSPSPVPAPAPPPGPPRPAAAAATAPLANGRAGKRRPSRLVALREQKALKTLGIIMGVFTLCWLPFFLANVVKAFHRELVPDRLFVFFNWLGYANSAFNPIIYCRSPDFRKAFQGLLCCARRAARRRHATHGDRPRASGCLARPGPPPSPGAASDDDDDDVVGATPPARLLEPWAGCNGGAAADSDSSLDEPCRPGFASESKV
Protocol: as §1

Endothelin ETA = target: T1, Endothelin ETA (Homo sapiens, UniProt P25101); assay: In vitro profiling, binding assay
T1 sequence (P25101 21-427): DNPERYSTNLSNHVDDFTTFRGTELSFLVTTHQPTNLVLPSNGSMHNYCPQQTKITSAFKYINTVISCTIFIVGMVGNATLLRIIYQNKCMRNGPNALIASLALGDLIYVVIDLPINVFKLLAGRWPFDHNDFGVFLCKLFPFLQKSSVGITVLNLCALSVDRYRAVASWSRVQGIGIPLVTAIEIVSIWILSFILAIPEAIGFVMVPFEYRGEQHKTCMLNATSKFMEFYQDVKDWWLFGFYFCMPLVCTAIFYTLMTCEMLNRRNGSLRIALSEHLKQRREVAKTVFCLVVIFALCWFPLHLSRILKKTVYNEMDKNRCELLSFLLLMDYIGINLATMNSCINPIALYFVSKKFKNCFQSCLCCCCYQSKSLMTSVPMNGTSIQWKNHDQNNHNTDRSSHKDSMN
Protocol: as §1

rat hippocampal slices = assay: Electrophysiological assay of hippocampal slices, population spike (PS) recording
Protocol: All animals were housed and used in accordance with the French and European legislations for animal care. Rats (Janvier Labs, Le Genest-Saint-Isle, France) were euthanized by fast decapitation, without prior anesthesia. The brain was quickly removed and soaked in ice-cold oxygenated buffer containing KCl 2 mM, NaH2PO4 1.2 mM, MgCl2 7 mM, CaCl2 0.5 mM, NaHCO3 26 mM, glucose 11 mM, and sucrose 250 mM. […] During the experiments, slices were perfused with oxygenated artificial cerebrospinal fluid at 37 °C at a rate of 3 mL/min. The tested slice numbers were > 2 for 100 µM, > 4 for 10 µM, and > 6 for 1 µM (follow-up study). All experiments were carried out with 3-dimensional multielectrode array (Qwane Biosciences S.A., Lausanne, Switzerland) and data were recorded with a commercially available multielectrode array set-up from MultiChannel Systems (MCS GmbH, Reutlingen, Germany).
A hippocampal slice was placed on the multielectrode array (100 μm distant electrodes). One electrode was chosen to stimulate schaffer collaterals (SC) at the CA1 border. The stimulus in a monopolar biphasic current pulse (−300 μA for 60 μs followed by +300 μA for 60 μs) was applied at 30-s intervals. An Input/Output (I/O) curve was derived before each experiment to determine the stimulation intensity. Basal stimulation intensity was then set to 100 μA higher than the minimal intensity necessary to induce PS in the pyramidal cell layer.
Then, 1 μM bicuculline, the antagonist of GABAA, was applied in the continuous presence of the compound for an additional 40-min. Control bicuculline slices were recorded in parallel and after 50 min of control recording, 1 μM bicuculline was applied for a 40-min period.
Normalized PS AUC was averaged by slices for each experiment carried out in the same conditions. PS AUC (± SEM) is expressed as a function of time. The number of PS oscillations induced at the end of the bicuculline-exposure period was determined for each electrode and averaged by slices. The results are presented as mean of the last 2 min of application. Statistical significance was measured using two-way ANOVA analysis with Sidak’s multiple comparisons test, except for the 100 µM concentration because of its small slice number.

[1] = test system: ileum isolated from guinea pig; assay: In vitro Magnus assay, ileum; conditions: 100 µM; ± SEM; p < 0.05
Protocol: (§2) Guinea pigs (Japan SLC, Inc., Shizuoka, Japan) were anesthetized with pentobarbital sodium (30–50 mg/kg, i.p.) and the stomach fundi, ileums, and colons were dissected after being exsanguinated. Tissues were immediately placed in Tyrode’s solution containing NaCl 136.9 mM, KCl 2.7 mM, MgCl2.6H2O 1.2 mM, CaCl2.2H2O 2.0 mM, NaHCO3 11.9 mM, and D(+)-glucose 5.6 mM, and flushed for luminal content removal. Segments of approximately 2 cm were cut from each tissue and placed in an organ bath containing Tyrode’s solution aerated with O2:CO2 (95:5) at 32 °C. The tissue segments were connected to an isometric transducer (load, 1.0 g) to record the contractions (Nihon Kohden Corporation, Tokyo, Japan).
(§3) Maximum recording period for one condition was 20 min, and the test solution was exchanged when no effect was detected within 3 min. […] The concentration of acetylcholine was set based on preliminary experiments.

[2] = test system: fundus isolated from guinea pig; assay: In vitro Magnus assay, stomach fundus; conditions: 100 µM; ± SEM; p < 0.01
Protocol: as §2, §3

[3] = test system: GI transit and gastric emptying; conditions: rats; dose-dependent manner; cited from earlier work
mice = conditions: 96 weeks; cited from earlier work
rats = conditions: two years; cited from earlier work
[4] = 30 µM, 5-HT1B, read-out: % Inhibition
[5] = 30 µM, Adrenergic β1, read-out: % Inhibition
[6] = 30 µM, Endothelin ETA, read-out: % Inhibition

5-HT2A, sequence (P28223 whole entry): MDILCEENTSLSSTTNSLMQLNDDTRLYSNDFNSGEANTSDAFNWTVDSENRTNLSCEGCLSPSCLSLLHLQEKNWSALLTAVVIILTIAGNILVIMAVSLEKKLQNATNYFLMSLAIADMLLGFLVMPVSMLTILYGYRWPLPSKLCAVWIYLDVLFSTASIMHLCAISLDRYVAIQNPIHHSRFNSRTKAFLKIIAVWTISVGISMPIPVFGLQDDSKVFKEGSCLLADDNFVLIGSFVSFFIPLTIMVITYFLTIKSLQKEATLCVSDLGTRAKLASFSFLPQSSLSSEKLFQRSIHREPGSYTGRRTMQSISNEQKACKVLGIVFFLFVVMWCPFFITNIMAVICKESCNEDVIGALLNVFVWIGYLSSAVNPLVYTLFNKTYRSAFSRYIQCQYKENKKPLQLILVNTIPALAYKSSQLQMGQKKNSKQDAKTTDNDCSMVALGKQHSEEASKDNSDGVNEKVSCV

With `COc1cc(/C=C/C(=O)O[C@H]2C[C@@](O)(C(=O)O)C[C@H](O)[C@@H]2O)ccc1O` [5-FQA, 5-O-feruloylquinic acid] as the compound, how does the inhibition at 30 µM (5-HT2A) read?
The inhibition at 30 µM was 8%.

And the inhibition at 30 µM (5-HT1B; [4])?
Its inhibition at 30 µM is -10%.

And the inhibition at 30 µM (Adrenergic β1; [5])?
The inhibition at 30 µM was -4%.

What about the inhibition at 30 µM (Endothelin ETA; [6]) of the same compound?
Its inhibition at 30 µM is 1%.

What about the Additional spike number (rat hippocampal slices; 10 μM compound, co-exposure with 1 μM bicuculline) of the same compound?
The Additional spike number was “in the same range as the bicuculline control slices”.

Which “Tension in the ileum” value [1] does the source give for `O=C(/C=C/c1ccc(O)c(O)c1)O[C@H]1C[C@@](O)(C(=O)O)C[C@H](O)[C@@H]1O` [5-CQA, 5-O-caffeoylquinic acid] here?
The value was 0.293 ± 0.068 g.

What about the inhibition at 30 µM (5-HT2A) of the same compound?
Its inhibition at 30 µM is 3%.

What about the inhibition at 30 µM (5-HT1B; [4]) of the same compound?
Its inhibition at 30 µM is -1%.

And the inhibition at 30 µM (Adrenergic β1; [5])?
The inhibition at 30 µM was -1%.

What about the inhibition at 30 µM (Endothelin ETA; [6]) of the same compound?
Its inhibition at 30 µM is 3%.

With `COc1cc(/C=C/C(=O)O)ccc1O` [FA, ferulic acid] as the compound, how does the inhibition at 30 µM (5-HT1B) read?
The inhibition at 30 µM was 4%.

And the inhibition at 30 µM (Adrenergic β1)?
The inhibition at 30 µM was -2%.

And the inhibition at 30 µM (Endothelin ETA)?
The inhibition at 30 µM was 1%.

And the “Tension in the fundus” value [2]?
The value was 0.089 ± 0.005 g.

And the “Effect on GI transit and gastric emptying” value [3]?
The value was “significantly accelerates”.

What about the Additional spike number (rat hippocampal slices; follow-up test, 1 µM alone, single application period) of the same compound?
The Additional spike number was “did not trigger multiple spikes”.

With `O=C(O)/C=C/c1ccc(O)c(O)c1` [CA, caffeic acid] as the compound, how does the “Safety pharmacological toxicity on chronic exposure” value (mice) read?
The value was “no safety pharmacological toxicity”.

What about the inhibition at 30 µM (5-HT2A) of the same compound?
The inhibition at 30 µM was 7%.

What about the “% Inhibition” value (5-HT1B; 30 µM, 5-HT1B) of the same compound?
Its value is 3%.

What about the “% Inhibition” value (Adrenergic β1; 30 µM, Adrenergic β1) of the same compound?
Its value is 3%.

And the “% Inhibition” value (Endothelin ETA; 30 µM, Endothelin ETA)?
Its value is 4%.

And the “Safety pharmacological toxicity on chronic exposure” value (rats)?
Its value is “no safety pharmacological toxicity”.
